Test results as given in PubChem BioAssay (NCI).
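A five-concentration, 48-hour dose response in 96-well plates underlies each endpoint, interpolated linearly between surrounding concentrations. TGI denotes the concentration required for complete inhibition of growth.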

Assays:
Test in all cases: NCI tumour cell line growth inhibition, 48 h
HT29 colon = test system: HT29 colon
SF-268 CNS = test system: SF-268 CNS
NCI-H522 lung = test system: NCI-H522 lung
BT-549 breast = test system: BT-549 breast
OVCAR-5 ovarian = test system: OVCAR-5 ovarian
HCT-116 colon = test system: HCT-116 colon
IGROV1 ovarian = test system: IGROV1 ovarian
SK-MEL-2 melanoma = test system: SK-MEL-2 melanoma
MDA-MB-231 breast = test system: MDA-MB-231 breast
HOP-92 NSCLC = test system: HOP-92 NSCLC
CCRF-CEM leukemia = test system: CCRF-CEM leukemia
NCI-H226 lung = test system: NCI-H226 lung
OVCAR-4 ovarian = test system: OVCAR-4 ovarian
RPMI-8226 leukemia = test system: RPMI-8226 leukemia
ACHN renal = test system: ACHN renal
SF-295 CNS = test system: SF-295 CNS
HL-60(TB) leukemia = test system: HL-60(TB) leukemia
A498 renal = test system: A498 renal
NCI/ADR-RES ovarian = test system: NCI/ADR-RES ovarian
EKVX NSCLC = test system: EKVX NSCLC
MALME-3M melanoma = test system: MALME-3M melanoma
PC-3 prostate = test system: PC-3 prostate
HCT-15 colon = test system: HCT-15 colon
LOX IMVI melanoma = test system: LOX IMVI melanoma
SR leukemia = test system: SR leukemia
MDA-MB-435 = test system: MDA-MB-435
COLO 205 colon = test system: COLO 205 colon
UO-31 renal = test system: UO-31 renal
MDA-N = test system: MDA-N
CAKI-1 renal = test system: CAKI-1 renal
SN12C renal = test system: SN12C renal
RXF 393 renal = test system: RXF 393 renal
UACC-257 melanoma = test system: UACC-257 melanoma
T-47D breast = test system: T-47D breast
OVCAR-8 ovarian = test system: OVCAR-8 ovarian
TK-10 renal = test system: TK-10 renal
A549 NSCLC = test system: A549 NSCLC
NCI-H23 lung = test system: NCI-H23 lung
SNB-19 CNS = test system: SNB-19 CNS
SF-539 CNS = test system: SF-539 CNS
SK-MEL-28 melanoma = test system: SK-MEL-28 melanoma
SNB-75 CNS = test system: SNB-75 CNS
786-0 renal = test system: 786-0 renal
NCI-H460 lung = test system: NCI-H460 lung
M14 melanoma = test system: M14 melanoma
OVCAR-3 ovarian = test system: OVCAR-3 ovarian
KM12 colon = test system: KM12 colon
SK-MEL-5 melanoma = test system: SK-MEL-5 melanoma
HOP-62 NSCLC = test system: HOP-62 NSCLC
K-562 leukemia = test system: K-562 leukemia
MOLT-4 leukemia = test system: MOLT-4 leukemia
SW-620 colon = test system: SW-620 colon
U251 CNS = test system: U251 CNS
HS 578T breast = test system: HS 578T breast
HCC-2998 colon = test system: HCC-2998 colon
UACC-62 melanoma = test system: UACC-62 melanoma
MCF7 breast = test system: MCF7 breast
DU-145 prostate = test system: DU-145 prostate
SK-OV-3 ovarian = test system: SK-OV-3 ovarian

O=C(N/N=C\c1cccc2c([N+](=O)[O-])cccc12)Nc1ccccc1
TGI (HT29 colon): 34.7 µM
TGI (SF-268 CNS): 73 µM
TGI (NCI-H522 lung): 38.4 µM
TGI (BT-549 breast): 29.3 µM
TGI (OVCAR-5 ovarian): 30.5 µM
TGI (HCT-116 colon): 16.1 µM
TGI (IGROV1 ovarian): 40.1 µM
TGI (SK-MEL-2 melanoma): 18.2 µM
TGI (MDA-MB-231 breast): 49.4 µM
TGI (HOP-92 NSCLC): 30.4 µM
TGI (CCRF-CEM leukemia): 33.9 µM
TGI (NCI-H226 lung): 31.2 µM
TGI (OVCAR-4 ovarian): 29.2 µM
TGI (RPMI-8226 leukemia): 44 µM
TGI (ACHN renal): 27.3 µM
TGI (SF-295 CNS): 32.5 µM
TGI (HL-60(TB) leukemia): 72.6 µM
TGI (A498 renal): 33.4 µM
TGI (NCI/ADR-RES ovarian): 32.3 µM
TGI (EKVX NSCLC): 35.1 µM
TGI (MALME-3M melanoma): 38 µM
TGI (PC-3 prostate): 32.7 µM
TGI (HCT-15 colon): 25.5 µM
TGI (LOX IMVI melanoma): 25.4 µM
TGI (SR leukemia): 43.3 µM
TGI (MDA-MB-435): 25 µM
TGI (COLO 205 colon): 50.7 µM
TGI (UO-31 renal): 26.4 µM
TGI (MDA-N): 32.8 µM
TGI (CAKI-1 renal): 25.5 µM
TGI (SN12C renal): 18.9 µM
TGI (RXF 393 renal): 26.3 µM
TGI (UACC-257 melanoma): 44.4 µM
TGI (T-47D breast): 20.4 µM
TGI (OVCAR-8 ovarian): 36.8 µM
TGI (TK-10 renal): 27.3 µM
TGI (A549 NSCLC): 28.3 µM
TGI (NCI-H23 lung): 35.2 µM
TGI (SNB-19 CNS): 36.5 µM
TGI (SF-539 CNS): 27.3 µM
TGI (SK-MEL-28 melanoma): 31.9 µM
TGI (SNB-75 CNS): > 100 µM
TGI (786-0 renal): 35.1 µM
TGI (NCI-H460 lung): 30.9 µM
TGI (M14 melanoma): 29.5 µM
TGI (OVCAR-3 ovarian): 29.4 µM
TGI (KM12 colon): 36.1 µM
TGI (SK-MEL-5 melanoma): 33.5 µM
TGI (HOP-62 NSCLC): 36 µM
TGI (K-562 leukemia): 43.5 µM
TGI (MOLT-4 leukemia): 41.7 µM
TGI (SW-620 colon): 35.8 µM
TGI (U251 CNS): 24 µM
TGI (HS 578T breast): 33.5 µM
TGI (HCC-2998 colon): 32 µM
TGI (UACC-62 melanoma): 24.4 µM
TGI (MCF7 breast): 26.7 µM
TGI (DU-145 prostate): 66.1 µM

COc1cccc(-c2ccc3c4c2O[C@H]2C(=O)CC[C@@]5(O)[C@@H](C3)N(CC3CC3)CC[C@]425)c1
TGI (HT29 colon): 24.6 µM
TGI (SF-268 CNS): 40.3 µM
TGI (NCI-H522 lung): 32.9 µM
TGI (BT-549 breast): 35.1 µM
TGI (OVCAR-5 ovarian): 35.7 µM
TGI (HCT-116 colon): 33.2 µM
TGI (IGROV1 ovarian): 44.2 µM
TGI (SK-MEL-2 melanoma): 34.1 µM
TGI (MDA-MB-231 breast): 30.3 µM
TGI (HOP-92 NSCLC): 38.4 µM
TGI (CCRF-CEM leukemia): 27.9 µM
TGI (NCI-H226 lung): 26.8 µM
TGI (OVCAR-4 ovarian): 31.4 µM
TGI (RPMI-8226 leukemia): 30.9 µM
TGI (ACHN renal): 35.9 µM
TGI (SF-295 CNS): 32.6 µM
TGI (HL-60(TB) leukemia): 40.5 µM
TGI (A498 renal): 34.1 µM
TGI (NCI/ADR-RES ovarian): 38.8 µM
TGI (EKVX NSCLC): 41 µM
TGI (MALME-3M melanoma): 36.4 µM
TGI (PC-3 prostate): 29.2 µM
TGI (HCT-15 colon): 29.3 µM
TGI (LOX IMVI melanoma): 30.9 µM
TGI (SR leukemia): 37.8 µM
TGI (MDA-MB-435): 25.6 µM
TGI (COLO 205 colon): 26.7 µM
TGI (UO-31 renal): 28.3 µM
TGI (MDA-N): 39.3 µM
TGI (CAKI-1 renal): 31 µM
TGI (SN12C renal): 41.4 µM
TGI (RXF 393 renal): 21.8 µM
TGI (UACC-257 melanoma): 43.2 µM
TGI (T-47D breast): 41.6 µM
TGI (OVCAR-8 ovarian): 34.3 µM
TGI (TK-10 renal): 32.2 µM
TGI (A549 NSCLC): 35.5 µM
TGI (NCI-H23 lung): 64.8 µM
TGI (SNB-19 CNS): 42.2 µM
TGI (SF-539 CNS): 29 µM
TGI (SK-MEL-28 melanoma): > 100 µM
TGI (786-0 renal): 32.1 µM
TGI (NCI-H460 lung): 50.7 µM
TGI (M14 melanoma): 28.1 µM
TGI (OVCAR-3 ovarian): 27.6 µM
TGI (KM12 colon): 31.7 µM
TGI (SK-MEL-5 melanoma): 28 µM
TGI (HOP-62 NSCLC): 35.4 µM
TGI (K-562 leukemia): 28.6 µM
TGI (MOLT-4 leukemia): 24.7 µM
TGI (SW-620 colon): 29.2 µM
TGI (SK-OV-3 ovarian): 34.5 µM
TGI (U251 CNS): 29.9 µM
TGI (HS 578T breast): 29.1 µM
TGI (UACC-62 melanoma): 32.7 µM
TGI (MCF7 breast): 31 µM
TGI (DU-145 prostate): 63.4 µM

COC[C@@H](C[C@H]1O[C@@](O)([C@H](O)[C@@H]2C[C@H](OC)[C@@H](O)CC/C=C(C)/C=C/[C@@H](O[C@@H]3O[C@@H](C)[C@H](OC)[C@@H](O)[C@@H]3O)[C@H](C)/C=C(C)/C=C(C)/C=C(\C)C(=O)O2)[C@H](C)[C@@H](O)[C@H]1C)O[C@H]1C[C@](C)(O)[C@@H](O[C@H]2C[C@@H](OC)[C@H](O)[C@@H](C)O2)C(C)O1 (stereo not given in full)
TGI (HT29 colon): > 100 µM
TGI (SF-268 CNS): > 100 µM
TGI (BT-549 breast): > 100 µM
TGI (OVCAR-5 ovarian): > 100 µM
TGI (HCT-116 colon): > 100 µM
TGI (IGROV1 ovarian): > 100 µM
TGI (SK-MEL-2 melanoma): > 100 µM
TGI (MDA-MB-231 breast): > 100 µM
TGI (HOP-92 NSCLC): > 100 µM
TGI (NCI-H226 lung): > 100 µM
TGI (OVCAR-4 ovarian): > 100 µM
TGI (RPMI-8226 leukemia): > 100 µM
TGI (ACHN renal): > 100 µM
TGI (SF-295 CNS): > 100 µM
TGI (HL-60(TB) leukemia): > 100 µM
TGI (A498 renal): > 100 µM
TGI (NCI/ADR-RES ovarian): > 100 µM
TGI (EKVX NSCLC): > 55.9 µM
TGI (MALME-3M melanoma): > 55.5 µM
TGI (PC-3 prostate): > 100 µM
TGI (HCT-15 colon): > 100 µM
TGI (LOX IMVI melanoma): > 100 µM
TGI (MDA-MB-435): > 100 µM
TGI (COLO 205 colon): > 100 µM
TGI (UO-31 renal): > 100 µM
TGI (MDA-N): > 100 µM
TGI (CAKI-1 renal): > 100 µM
TGI (SN12C renal): > 100 µM
TGI (RXF 393 renal): > 100 µM
TGI (UACC-257 melanoma): 26.5 µM
TGI (T-47D breast): > 100 µM
TGI (OVCAR-8 ovarian): > 100 µM
TGI (TK-10 renal): > 100 µM
TGI (A549 NSCLC): > 100 µM
TGI (NCI-H23 lung): > 100 µM
TGI (SNB-19 CNS): > 100 µM
TGI (SF-539 CNS): > 100 µM
TGI (SK-MEL-28 melanoma): > 100 µM
TGI (786-0 renal): > 100 µM
TGI (NCI-H460 lung): > 100 µM
TGI (M14 melanoma): > 100 µM
TGI (OVCAR-3 ovarian): > 100 µM
TGI (KM12 colon): > 100 µM
TGI (SK-MEL-5 melanoma): > 100 µM
TGI (HOP-62 NSCLC): > 100 µM
TGI (K-562 leukemia): > 46.7 µM
TGI (MOLT-4 leukemia): > 64.3 µM
TGI (SW-620 colon): > 100 µM
TGI (SK-OV-3 ovarian): > 100 µM
TGI (U251 CNS): > 100 µM
TGI (HS 578T breast): > 100 µM
TGI (HCC-2998 colon): > 100 µM
TGI (UACC-62 melanoma): > 100 µM
TGI (MCF7 breast): > 100 µM
TGI (DU-145 prostate): > 100 µM
